Laboratory results published in patent US9255071B2, “Compounds having antibacterial activity, process for their preparation and pharmaceutical compositions comprising them” (Consejo Nacional de Investigaciones Cientificas y Técnicas …, priority 2012, dated 2016).
In brackets after ≈: the same amount, converted by molar mass.

Legend:
Mycobacterium smegmatis = experiment: Determination of the Minimum Inhibitory Concentration, M. smegmatis; assay type: cell-based; conditions: Mycolicibacterium smegmatis, ATCC607; M. smegmatis (ATCC 607), 72 h incubation, 1×10^5 CFU/ml inoculum
Experimental: (§1) The Minimum Inhibitory Concentration (MIC), which is defined as the lowest antimicrobial agent concentration inhibiting the visible growth of a microorganism following its incubation, was subsequently determined.
(§2) For the purpose of such determination, the compounds under study were tested on the strains listed in Table 3 with the antibiotics (AB) stated as reference in the table.
(§3) The test was conducted on a plate on the basis of a 1×10^5 CFU/ml inoculum concentration, with negative, positive and sterility controls being simultaneously performed. Different concentrations of the compounds under study were tested, as shown on the last column included in Table 3 (working solution).
(§4) Following incubation at 32.5±2.5° C. for a 24 h period (48 h in the case of C. sporogenes and 72 h in the case of M. smegmatis), the plates were visually read. The appearance of turbidity and/or the formation of a growth point at the microtube bottom were held as a positive result.

Clostridium sporogenes = experiment: Determination of the Minimum Inhibitory Concentration, C. sporogenes; assay type: cell-based; conditions: ATCC19404, C. sporogenes (ATCC 19404), 48 h incubation, 1×10^5 CFU/ml inoculum
Experimental: as §1, §2, §3, §4

Streptococcus pneumoniae [1] = conditions: Streptococcus pneumoniae ATCC 10015; reference antibiotic according to WHONET; cited from earlier work
Shigella boydii [2] = experiment: Determination of the Minimum Inhibitory Concentration, S. boydii; assay type: cell-based; conditions: ATCC12027, S. boydii (ATCC 12027), 24 h incubation, 1×10^5 CFU/ml inoculum
Experimental: as §1, §2, §3, §4

Shigella flexneri [3] = experiment: Determination of the Minimum Inhibitory Concentration, S. flexneri; assay type: cell-based; conditions: ATCC11836, S. flexneri (ATCC 11836), 24 h incubation, 1×10^5 CFU/ml inoculum
Experimental: as §1, §2, §3, §4

Acinetobacter guillouiae = Acinetobacter guillouiae ATCC 11171; reference antibiotic according to WHONET; in µg/mL; cited from earlier work
Streptococcus pneumoniae [4] = experiment: Determination of the Minimum Inhibitory Concentration, S. pneumoniae; assay type: cell-based; conditions: ATCC10015, S. pneumoniae (ATCC 10015), 24 h incubation, 1×10^5 CFU/ml inoculum
Experimental: as §1, §2, §3, §4

Shigella flexneri [5] = system: Shigella flexneri; set-up: unit not given beside the values; conditions: Shigella flexneri ATCC 11836; reference antibiotic according to WHONET; cited from earlier work
Shigella boydii [6] = system: Shigella boydii; set-up: unit not given beside the values; conditions: Shigella boydii ATCC 12027; reference antibiotic according to WHONET; cited from earlier work
Staphylococcus Aureus = Staphylococcus Aureus ATCC 29737; reference antibiotic according to WHONET; in µg/mL; cited from earlier work
Enterococcus faecalis = Enterococcus faecalis ATCC 29212; reference antibiotic according to WHONET; in µg/mL; cited from earlier work

Q: What does the source list for `COc1ccc(/C=C/C(=O)NNC(=O)c2ccncc2)cc1C(F)F` [compound 4]?
A: MIC (Mycobacterium smegmatis): 64 µg/mL (≈ 184 µM); MIC (Clostridium sporogenes): 64 µg/mL (≈ 184 µM)

Q: Which “MIC (for WHO antibiotics)” value (Streptococcus pneumoniae [1]) does the source give for `CC1(C)S[C@@H]2[C@H](NC(=O)[C@H](N)c3ccccc3)C(=O)N2[C@H]1C(=O)O` [Ampicillin (sodium), Ampicillin] here?
A: ≦0.5

Q: Which results are given for `COc1ccc(/C=C/C(=O)NC(C)C)cc1O` [compound 10]?
A: MIC (Shigella boydii [2]): 32 µg/mL (≈ 136 µM); MIC (Shigella flexneri [3]): 32 µg/mL (≈ 136 µM)

Q: Which melting point does the source give for `COc1ccc(C=CC(=O)N2CCOCC2)cc1C(F)F` [Example 12, N-[3-(difluoromethyl)-4-methoxy-cinnamoyl]morpholine] here?
A: 119 °C

Q: With `CN(C)c1ccc(O)c2c1C[C@H]1C[C@H]3[C@H](N(C)C)C(O)=C(C(N)=O)C(=O)[C@@]3(O)C(O)=C1C2=O` [Minocyclin] as the molecule, how does the “MIC (for WHO antibiotics)” value (Acinetobacter guillouiae) read?
A: 0.06-8.0

Q: For `CC(=O)Oc1ccc(/C=C/C(=O)NC(C)C)cc1C(F)F` [entry 3], which MIC (Mycobacterium smegmatis) is on record?
A: 64 µg/mL (≈ 215 µM)

Q: With `COc1ccc(/C=C/C(=O)NCCCNC(=O)/C=C/c2ccc(OC)c(C(F)F)c2)cc1C(F)F` [compound 7] as the molecule, how does the MIC (Streptococcus pneumoniae [4]) read?
A: 64 µg/mL (≈ 129 µM)

Q: With `COc1ccc(C=CC(=O)N2CCN(C(=O)C=Cc3ccc(OC)c(C(F)F)c3)CC2)cc1C(F)F` [Example 6, N,N′-bis[3-(difluoromethyl)-4-methoxy-cinnamoyl]piperazine] as the molecule, how does the melting point read?
A: 259 to 261 °C

Q: Which “MIC (for WHO antibiotics)” value (Shigella flexneri [5]) does the source give for `C[C@@H]1O[C@@H]1P(=O)(O)O` [Phosphomycin] here?
A: ≦4.0

Q: What about the “MIC (for WHO antibiotics)” value (Shigella boydii [6]) of the same molecule?
A: ≦4.0

Q: With `COc1ccc(/C=C/C(=O)NCC(C)C)cc1C(F)F` [compound 5] as the molecule, how does the MIC (Mycobacterium smegmatis) read?
A: 32 µg/mL (≈ 113 µM)

Q: For `CN[C@H](CC(C)C)C(=O)N[C@H]1C(=O)N[C@@H](CC(N)=O)C(=O)N[C@H]2C(=O)N[C@H]3C(=O)N[C@H](C(=O)N[C@H](C(=O)O)c4cc(O)cc(O)c4-c4cc3ccc4O)[C@H](O)c3ccc(c(Cl)c3)Oc3cc2cc(c3O[C@@H]2O[C@H](CO)[C@@H](O)[C@H](O)[C@H]2O[C@H]2C[C@](C)(N)[C@H](O)[C@H](C)O2)Oc2ccc(cc2Cl)[C@H]1O` [Vancomycin], which “MIC (for WHO antibiotics)” value (Staphylococcus Aureus) is on record?
A: 0.5-2.0

Q: And the “MIC (for WHO antibiotics)” value (Enterococcus faecalis)?
A: 1.0-4.0

Q: For `COc1ccc(/C=C/C(=O)Nc2ccccc2)cc1C(F)F` [compound 1], which MIC (Mycobacterium smegmatis) is on record?
A: 64 µg/mL (≈ 211 µM)

Q: For `COc1ccc(/C=C/C(=O)NC(C)C)cc1C` [compound 9], which MIC (Mycobacterium smegmatis) is on record?
A: 32 µg/mL (≈ 137 µM)

Q: For `COc1ccc(/C=C/C(=O)NC(C)C)cc1` [compound 8], which MIC (Mycobacterium smegmatis) is on record?
A: 32 µg/mL (≈ 146 µM)

Q: With `COc1ccc(/C=C/C(=O)NC(C)C)cc1C(F)F` [compound 2] as the molecule, how does the MIC (Mycobacterium smegmatis) read?
A: 8 µg/mL (≈ 29.7 µM)

Q: With `COc1ccc(/C=C/C(=O)NCCC(C)C)cc1C(F)F` [compound 6] as the molecule, how does the MIC (Streptococcus pneumoniae [4]) read?
A: 64 µg/mL (≈ 215 µM)

Q: What about the MIC (Mycobacterium smegmatis) of the same molecule?
A: 8 µg/mL (≈ 26.9 µM)
